The target in one series is T1, human OX2 receptor (Homo sapiens, UniProt O43614).
T1 construct: host or cells: CHO RD-HGA16 cells
T1 sequence (O43614 1-444): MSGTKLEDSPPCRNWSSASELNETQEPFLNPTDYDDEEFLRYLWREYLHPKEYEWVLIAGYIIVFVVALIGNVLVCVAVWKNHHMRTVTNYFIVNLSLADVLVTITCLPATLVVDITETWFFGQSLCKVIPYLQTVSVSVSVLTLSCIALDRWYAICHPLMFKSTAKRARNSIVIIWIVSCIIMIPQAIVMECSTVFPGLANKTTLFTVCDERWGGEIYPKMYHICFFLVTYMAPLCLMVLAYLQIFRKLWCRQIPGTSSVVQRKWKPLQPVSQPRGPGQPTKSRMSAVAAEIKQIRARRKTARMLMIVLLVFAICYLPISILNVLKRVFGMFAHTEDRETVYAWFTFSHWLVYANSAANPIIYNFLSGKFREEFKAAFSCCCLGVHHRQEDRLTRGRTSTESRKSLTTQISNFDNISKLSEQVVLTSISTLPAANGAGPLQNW
As to the kind of experiment: OX2R calcium mobilization assay. In kind it is cell-based. To be noted: for agonist potency at OX2R, in words: calcium mobilization; for Emax: Table 10. The procedure:
(§1) Activity of the target compounds at the human OX1 and OX2 receptors was determined utilizing CHO RD-HGA16 cells (Molecular Devices) engineered to stably express either the human OX1 or the human OX2 receptor. Cells were maintained in Ham's F12 supplemented with 10% fetal bovine serum, 100 units of penicillin and streptomycin, and 100 μg/mL normocin™. To conduct the assay, cells were plated at 25,000 cells/well and incubated overnight at 37° C., 5% CO2. The next day, cells were washed with assay buffer and loaded with Calcium 5 dye (Molecular Devices). After 45 minutes, cells were pretreated with a 9% DMSO solution for 15 minutes.
(§2) All of the synthesized compounds were characterized for their agonist potencies in the calcium mobilization assays using CHO cells overexpressing either the OX1R or OX2R. Reference is made to German, N. A.; Decker, A. M.; Gilmour, B. P.; Thomas, B. F.; Zhang, Y., Truncated Orexin Peptides: Structure-Activity Relationship Studies.

The target of series [1] is T2, OX1R (Homo sapiens, UniProt O43613).
T2 sequence (O43613 1-425): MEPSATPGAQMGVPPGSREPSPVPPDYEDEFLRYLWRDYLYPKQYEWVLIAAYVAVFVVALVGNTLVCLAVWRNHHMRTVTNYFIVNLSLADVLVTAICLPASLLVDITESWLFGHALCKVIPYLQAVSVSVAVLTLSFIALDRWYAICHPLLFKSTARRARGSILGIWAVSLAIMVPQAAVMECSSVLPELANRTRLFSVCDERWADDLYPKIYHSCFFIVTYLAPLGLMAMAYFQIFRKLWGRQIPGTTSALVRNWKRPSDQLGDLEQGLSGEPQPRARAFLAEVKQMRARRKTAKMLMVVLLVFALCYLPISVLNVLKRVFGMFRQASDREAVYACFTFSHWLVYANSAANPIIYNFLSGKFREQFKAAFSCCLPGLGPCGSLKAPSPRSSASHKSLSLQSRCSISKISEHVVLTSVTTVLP
Briefly: OX1R calcium mobilization assay. In kind it is cell-based. Also on record: host or cells: CHO RD-HGA16 cells. To be noted: for OX1/OX2: ratio of OX1 to OX2 potency value; for agonist potency at OX1R, in words: calcium mobilization. The procedure:
as §1, §2

A short description of series [2]: Metabolic stability in rat liver microsomes (RLM). It is filed as in vitro ADME. The conditions noted are these: for metabolic stability in rat liver microsomes, in words: RLM; for half-life: rat, rat liver microsomes, read-out: t1/2 (RLM). From the text: (§3) The main structural difference is the pyridyl group connected to the sulfonamide in RTIOXA-47, as compared to the other 3 compounds. The replacement of a phenyl group with a pyridyl reduced the electron density of this aromatic ring.
A general note: Microsomes from liver hold many membrane-bound enzymes, among them those of drug oxidation.

Series [3] is described as follows: Aqueous solubility at pH 2. In kind it is physicochemical. The conditions noted are these: aqueous medium at pH 2, pH 2, simulated gastric fluid.
From the text: as §3

Series [4] addresses T2, OX1R. To be noted: literature; cited from earlier work.
For another series, the target named is both orexin receptors. To be noted: literature (Turku et al. 2017); cited from earlier work.
The conditions of series [5]: literature (Turku et al. 2017); cited from earlier work.
The mark [6] stands for this setting: CHO RD-HGA16 cells expressing human OX2, calcium mobilization, read-out: EC50 (OX2).
Where [7] appears, read: CHO RD-HGA16 cells expressing human OX1, calcium mobilization, read-out: EC50 (OX1).

Converted amounts (≈) assume the structure as drawn. Like-named read-outs stand apart in the source and are kept apart here. A value given as a limit tells only on which side of the number the result lay.

In the case of `COc1ccc(-c2cccc(C(=O)N3CCCC3)c2)cc1S(=O)(=O)Nc1cccc(NCCNC(=O)c2ccccc2N(C)C)c1` [Compound 3], on human OX2 receptor (setting [6]), the EC50 (usually the midpoint of the concentration-response curve) is 0.252 µM.

Turning to `CCCNC(=O)c1cccc(-c2ccc(OC)c(S(=O)(=O)Nc3cccc(NCCNC(=O)c4ccccc4N(C)C)c3)c2)c1` [Compound 4], at OX1R [1] (setting [7]), the EC50 is over 10 µM. For the same compound, at OX1R [1], the OX1/OX2 was over 20.

As to `CCN(CC)C(=O)c1cccc(-c2ccc(OC)c(S(=O)(=O)Nc3cccc(NCCNC(=O)c4ccccc4N(C)C)c3)c2)c1` [Compound 5], on OX1R [1] (setting [7]), the EC50 turned out to be 0.737 µM. The OX1/OX2 on OX1R [1] stood at 3.32.

With `COc1ccc(-c2cccc(C(C)C)c2)cc1S(=O)(=O)Nc1cccc(NCCNC(=O)c2ccccc2N(C)C)c1` [Compound 6], the EC50 at OX1R [1] (setting [7]) and on human OX2 receptor (setting [6]) was over 10 µM throughout.

Regarding `COc1ccc(-c2cccc(N(C)C)c2)cc1S(=O)(=O)Nc1cccc(NCCNC(=O)c2ccccc2N(C)C)c1` [Compound 7], the EC50 at OX1R [1] (setting [7]) was over 10 µM; at human OX2 receptor (setting [6]) it was 2.13 µM. On OX1R [1], the OX1/OX2 is over 20.

For `CCN(CC)c1cccc(-c2ccc(OC)c(S(=O)(=O)Nc3cccc(NCCNC(=O)c4ccccc4N(C)C)c3)c2)c1` [Compound 8], the EC50 on OX1R [1] (setting [7]) is over 10 µM. Further, the OX1/OX2 on OX1R [1] was over 20.

Take `CCCN(CCC)c1cccc(-c2ccc(OC)c(S(=O)(=O)Nc3cccc(NCCNC(=O)c4ccccc4N(C)C)c3)c2)c1` [Compound 9]: the concentration for a half-maximal effect (EC50) on OX1R [1] (setting [7]) and at human OX2 receptor (setting [6]) was over 10 µM throughout.

As to `COc1ccc(-c2cccc(C(C)(C)C)c2)cc1S(=O)(=O)Nc1cccc(NCCNC(=O)c2ccccc2N(C)C)c1` [Compound 10], the EC50 at OX1R [1] (setting [7]) and on human OX2 receptor (setting [6]) was over 10 µM each time.

For `COc1ccc(-c2cccc(C(F)(F)F)c2)cc1S(=O)(=O)Nc1cccc(NCCNC(=O)c2ccccc2N(C)C)c1` [Compound 11], the 50% effective concentration (EC50) at OX1R [1] (setting [7]) and on human OX2 receptor (setting [6]) was over 10 µM each time.

`COc1ccc(-c2cccc(C(=O)N(C)C)c2)cc1S(=O)(=O)Nc1cccc(N2CCN(C(=O)c3ccccc3N(C)C)CC2)c1` [Compound 17]: the EC50 at OX1R [1] (setting [7]) and on human OX2 receptor (setting [6]) was over 10 µM each time.

For `COc1ccc(-c2cccc(C(=O)N(C)C)c2)cc1S(=O)(=O)Nc1cccc(N2CCN(C(=O)c3cccc(C)c3)CC2)c1` [Compound 18], the EC50 on OX1R [1] (setting [7]) and at human OX2 receptor (setting [6]) was over 10 µM each time.

In the case of `COc1ccc(-c2cccc(C(=O)NCCN(C)C)c2)cc1S(=O)(=O)Nc1cccc(NCCNC(=O)c2cccc(C)c2)c1` [Compound 32], on OX1R [1], the “agonist potency at OX1R, in words” value was “complete loss of potency” and the OX1/OX2 was over 10.0. The “agonist potency at OX2R, in words” value at human OX2 receptor is “sharp decrease of potency”.

For `COc1ccc(-c2cccc(C(=O)N(C)c3ccccn3)c2)cc1S(=O)(=O)Nc1cccc(NCCNC(=O)c2cccc(C)c2)c1` [Compound 33], the OX1/OX2 at OX1R [1] is 4.69.

For the compound `COc1ccc(-c2cccc(C(=O)NCc3ccccn3)c2)cc1S(=O)(=O)Nc1cccc(NCCNC(=O)c2cccc(C)c2)c1` [Compound 36], at OX1R [1], the “agonist potency at OX1R, in words” value is reported as “complete loss of the OX1R potency” and the OX1/OX2 is over 20.0.

In the case of `COc1ccc(-c2cccc(C(=O)N(C)Cc3ccncc3)c2)cc1S(=O)(=O)Nc1cccc(NCCNC(=O)c2cccc(C)c2)c1` [Compound 38], in series [2], the “metabolic stability in rat liver microsomes, in words” value is recorded as “modest metabolic stability” and the half-life amounted to 1.9 min. Besides, at OX1R [1] (Table 10), the Emax – broadly, the greatest response seen or fitted, relative to the assay's reference – turned out to be 105%. Further, the half-maximal effective concentration (EC50) on OX1R [1] (Table 10, read-out: OX1R EC50) stood at 0.024 µM. Besides, at OX1R [1], the “agonist potency at OX1R, in words” value was “high and equal potency”; the OX1/OX2 is 1.0. In addition, on human OX2 receptor, the Emax is 96%; the “agonist potency at OX2R, in words” value is “high and equal potency”. Also, in series [3], the concentration in solution (solubility) came to 313 µM (≈ 208 µg/mL).

In the case of `COc1ccc(-c2cccc(C(=O)N(C)CCc3ccccn3)c2)cc1S(=O)(=O)Nc1cccc(NCCNC(=O)c2cccc(C)c2)c1` [Compound 39], the OX1/OX2 on OX1R [1] is on record as 2.78.

With `COc1ccc(-c2cccc(C(=O)N(C)C)c2)cc1C(=O)Nc1cccc(NCCNC(=O)c2cccc(C)c2)c1` [Compound 41], the “agonist potency at OX1R, in words” value at OX1R [1] was “inactive”.

For `COc1ccc(-c2cccc(C(=O)N(C)Cc3ccncc3)c2)cc1-c1nnc(Nc2cccc(NCCNC(=O)c3cccc(C)c3)c2)s1` [Compound 43], the “agonist potency at OX1R, in words” value at OX1R [1] was “inactive”. Moreover, the “agonist potency at OX2R, in words” value on human OX2 receptor was “inactive”.

Regarding `COc1ccc(-c2cccc(C(=O)N(C)Cc3ccncc3)c2)cc1-c1nnc(Nc2cccc(OCCNC(=O)c3cccc(C)c3)c2)s1` [Compound 44], the “agonist potency at OX1R, in words” value at OX1R [1] is “inactive”. For the same compound, the “agonist potency at OX2R, in words” value at human OX2 receptor is “inactive”.

For `COc1ccc(-c2cccc(C(=O)N(C)Cc3ccncc3)c2)cc1S(=O)(=O)Nc1cncc(OCCNC(=O)c2cccc(C)c2)c1` [Compound 55], on OX1R [1], the OX1/OX2 is 1.52.

Consider `COc1ccc(-c2cccc(C(=O)N(C)Cc3ccncc3)n2)cc1S(=O)(=O)Nc1cccc(NCCNC(=O)c2cccc(C)c2)c1` [Compound 59], for which, in series [2], the “metabolic stability in rat liver microsomes, in words” value is reported as “modest metabolic stability” and the half-life is 1.8 min. Besides, the Emax on OX1R [1] (Table 10) came to 95%. Moreover, on human OX2 receptor, the maximum response (Emax) was 94%. Also, the solubility (as a rule, how much of the substance goes into solution per volume) in series [3] is over 400 µM.

Consider `CCC(=O)NCCNc1cncc(NS(=O)(=O)c2cc(-c3cccc(C(=O)N(C)Cc4ccncc4)c3)ccc2OC)c1` [Compound 63], for which, on OX1R [1], the OX1/OX2 was determined as 0.48.

Take `COc1ccc(-c2cccc(C(=O)N(C)Cc3ccncc3)c2)cc1S(=O)(=O)Nc1cncc(NCCNC(=O)C(C)C)c1` [Compound 64]: the OX1/OX2 at OX1R [1] was determined as 0.46.

For the compound `CCCC(=O)NCCNc1cncc(NS(=O)(=O)c2cc(-c3cccc(C(=O)N(C)Cc4ccncc4)c3)ccc2OC)c1` [Compound 65], the OX1/OX2 at OX1R [1] amounted to 0.60.

For `CCCCC(=O)NCCNc1cncc(NS(=O)(=O)c2cc(-c3cccc(C(=O)N(C)Cc4ccncc4)c3)ccc2OC)c1` [Compound 66], on OX1R [1], the OX1/OX2 is reported as 0.33.

Turning to `CCCCCC(=O)NCCNc1cncc(NS(=O)(=O)c2cc(-c3cccc(C(=O)N(C)Cc4ccncc4)c3)ccc2OC)c1` [Compound 67], the EC50 at OX1R [1] is 0.0333 µM; on human OX2 receptor it was 0.0997 µM. The OX1/OX2 on OX1R [1] stood at 0.33.

As for `COc1ccc(-c2cccc(C(=O)N(C)Cc3ccncc3)c2)cc1S(=O)(=O)Nc1cncc(NCCNC(=O)C2CCCCC2)c1` [Compound 68], at OX1R [1], the OX1/OX2 was found to be 0.44.

Take `COc1ccc(-c2cccc(C(=O)N(C)Cc3ccncc3)c2)cc1S(=O)(=O)Nc1cncc(NCCNC(=O)CC2CCCC2)c1` [Compound 69]: the OX1/OX2 at OX1R [1] was 0.57.

`COc1ccc(-c2cccc(C(=O)N(C)Cc3ccncc3)c2)cc1S(=O)(=O)Nc1cncc(NCCNC(=O)CCC2CCCCC2)c1` [Compound 70]: the OX1/OX2 at OX1R [1] was determined as 0.72.

On to `COC(=O)N1CCC[C@H](NS(C)(=O)=O)[C@@H]1CO[C@H]1CC[C@@H](c2ccccc2)CC1` [TAK-925], for which the “activity at OX1R, in words” value at OX1R [4] was “little to no activity”.

On to `Cc1ccc(Cn2c(=N)n(CC(O)c3ccc(Cl)c(Cl)c3)c3ccccc32)cc1` (centres unmarked) [Yan7874], for which the EC50 on both orexin receptors is over 3.2 µM. Further, in series [5], the cytotoxicity entry is “orexin receptor independent cytotoxicity”.

(Values after patent publication US20240174605A1, “ARYLSULFONAMIDES AS OREXIN RECEPTOR AGONISTS” (RESEARCH TRIANGLE INSTITUTE, priority 2021, published 2024).)
